Data set [1] is described as follows: in vivo. Particulars: cynomolgus monkey, sc, 0.1 mg/kg. Details: species or system Macaca fascicularis. How it is done: Macaca fascicularis were used as experimental animals. A subcutaneous administration was performed at a dose of 0.1 mg/kg. Venous blood samples were collected before administration (0 h) and at 1 h, 2 h, 3 h, 4 h, 8 h, 12 h, 18 h, 24 h, 48 h, 96 h, 144 h, and 168 h post-administration. Plasma samples were separated by centrifugation. The plasma concentration of the compound in the plasma samples was determined using liquid chromatography-mass spectrometry.

In data set [2] the target is T1, calcitonin receptors (CTR) (Homo sapiens, UniProt P30988).
T1 construct: expressed in transfected cells; host or cells: cAMP Hunter HEK293-CT-R Gs cell line (HEK293, stably transfected)
T1 sequence (P30988 25-474): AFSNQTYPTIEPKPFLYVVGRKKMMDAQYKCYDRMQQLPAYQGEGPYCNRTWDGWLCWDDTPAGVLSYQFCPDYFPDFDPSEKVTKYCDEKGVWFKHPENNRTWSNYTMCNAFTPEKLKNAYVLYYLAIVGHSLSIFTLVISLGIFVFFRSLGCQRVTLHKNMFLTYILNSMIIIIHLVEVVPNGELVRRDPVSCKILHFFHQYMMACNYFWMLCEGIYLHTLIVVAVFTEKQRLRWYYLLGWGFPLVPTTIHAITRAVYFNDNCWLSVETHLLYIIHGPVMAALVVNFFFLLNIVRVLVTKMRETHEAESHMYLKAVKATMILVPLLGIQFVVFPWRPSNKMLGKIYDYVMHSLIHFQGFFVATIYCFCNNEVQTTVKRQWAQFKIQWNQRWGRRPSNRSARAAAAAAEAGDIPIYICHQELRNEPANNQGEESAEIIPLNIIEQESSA
Put plainly: cAMP determination (HTRF, cAMP Dynamic 2 Kit) in cAMP Hunter HEK293-CT-R Gs cell line. In kind it is cell-based.

Each structure is given as a SMILES string.

For `CC(C)C[C@H](NC(=O)[C@H](CCCCN)NC(=O)CNC(=O)[C@H](CC(C)C)NC(=O)[C@@H](NC(=O)[C@@H]1CSSC[C@H](N)C(=O)N[C@@H](CO)C(=O)N[C@@H](CC(N)=O)C(=O)N[C@@H](CC(C)C)C(=O)N[C@@H](CO)C(=O)N[C@@H]([C@@H](C)O)C(=O)N1)C(C)C)C(=O)N[C@@H](CO)C(=O)N[C@@H](CCC(N)=O)C(=O)N[C@@H](CCC(=O)O)C(=O)N[C@@H](CC(C)C)C(=O)N[C@@H](Cc1c[nH]cn1)C(=O)N[C@@H](CCCCNC(=O)COCCOCCOCCOCCOCCNC(=O)CC[C@H](NC(=O)CCCCCCCCCCCCCCCCCCC(=O)O)C(=O)O)C(=O)N[C@@H](CC(C)C)C(=O)N[C@@H](CCC(N)=O)C(=O)N[C@H](C(=O)N[C@@H](Cc1ccc(O)cc1)C(=O)N1CCC[C@H]1C(=O)N[C@@H](CCCNC(=N)N)C(=O)N[C@H](C(=O)N[C@@H](CC(N)=O)C(=O)N[C@H](C(=O)NCC(=O)N[C@@H](CO)C(=O)NCC(=O)N[C@H](C(=O)N1CCC[C@H]1C(N)=O)[C@@H](C)O)[C@@H](C)O)[C@@H](C)O)[C@@H](C)O` [Compound 5, Cys-Ser-Asn-Leu-Ser-Thr-Cys-Val-Leu-Gly-Lys-Leu-Ser-Gln-Glu-Leu-His-Lys(PEG5CH2CO-γGlu-eicosanedioic acid)-Leu-Gln-Thr-Tyr-Pro-Arg-Thr-Asn-Thr-Gly-Ser-Gly-Thr-Pro-NH2], the half-life – broadly, the time needed for the level to fall by half in the phase considered – in data set [1] is 53.6 h. Also, the “Relative Activity%” value in data set [2] (relative to Salmon Calcitonin = 100.0, HEK293 CT-R cAMP) is on record as 339.3%.

With `CC(C)C[C@H](NC(=O)[C@H](CCCCN)NC(=O)CNC(=O)[C@H](CC(C)C)NC(=O)[C@@H](NC(=O)[C@@H]1CSSC[C@H](N)C(=O)N[C@@H](CO)C(=O)N[C@@H](CC(N)=O)C(=O)N[C@@H](CC(C)C)C(=O)N[C@@H](CO)C(=O)N[C@@H]([C@@H](C)O)C(=O)N1)C(C)C)C(=O)N[C@@H](CO)C(=O)N[C@@H](CCC(N)=O)C(=O)N[C@@H](CCC(=O)O)C(=O)N[C@@H](CC(C)C)C(=O)N[C@@H](Cc1c[nH]cn1)C(=O)N[C@@H](CCCCNC(=O)CNC(=O)CNC(=O)CNC(=O)CC[C@H](NC(=O)CCCCCCCCCCCCCCCCCCC(=O)O)C(=O)O)C(=O)N[C@@H](CC(C)C)C(=O)N[C@@H](CCC(N)=O)C(=O)N[C@H](C(=O)N[C@@H](Cc1ccc(O)cc1)C(=O)N1CCC[C@H]1C(=O)N[C@@H](CCCNC(=N)N)C(=O)N[C@H](C(=O)N[C@@H](CC(N)=O)C(=O)N[C@H](C(=O)NCC(=O)N[C@@H](CO)C(=O)NCC(=O)N[C@H](C(=O)N1CCC[C@H]1C(N)=O)[C@@H](C)O)[C@@H](C)O)[C@@H](C)O)[C@@H](C)O` [Compound 12], the EC50 (as a rule, the midpoint of the concentration-response curve) in data set [2] (HEK293 cell line stably expressing CT-R, intracellular cAMP, HTRF) is 3.9 pM.
